Source: article PMC7194404, “Arg-type dihydroflavonol 4-reductase genes from the fern Dryopteris erythrosora play important roles in the biosynthesis of anthocyanins” (PLoS ONE, 2020)

What was measured:
Assay in all cases: HPLC of anthocyanidin formed from product, crude E. coli extract
Format in all cases: biochemical
Settings in all cases: 0.8 mM substrate, 1.6 mM NADPH, 50 mM Tris-HCl pH 7.0, 30 °C, 30 min
DeDFR2 = target: T1, DeDFR2 (Dryopteris erythrosora, UniProt A0A5P8I1W3)
T1 construct: gene DFR2
T1 sequence (A0A5P8I1W3 1-341): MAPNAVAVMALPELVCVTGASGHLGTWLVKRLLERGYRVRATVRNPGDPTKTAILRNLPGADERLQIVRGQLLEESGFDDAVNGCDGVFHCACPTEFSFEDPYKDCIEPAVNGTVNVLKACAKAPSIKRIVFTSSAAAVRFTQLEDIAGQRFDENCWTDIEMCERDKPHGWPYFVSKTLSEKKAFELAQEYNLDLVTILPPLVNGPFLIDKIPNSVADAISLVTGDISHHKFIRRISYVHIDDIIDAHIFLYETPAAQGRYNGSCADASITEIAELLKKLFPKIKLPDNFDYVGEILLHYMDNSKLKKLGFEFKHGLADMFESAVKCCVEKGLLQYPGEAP

DeDFR1 = target: T2, DeDFR1 (Dryopteris erythrosora, UniProt A0A5P8I1X0)
T2 construct: gene DFR1
T2 sequence (A0A5P8I1X0 1-328): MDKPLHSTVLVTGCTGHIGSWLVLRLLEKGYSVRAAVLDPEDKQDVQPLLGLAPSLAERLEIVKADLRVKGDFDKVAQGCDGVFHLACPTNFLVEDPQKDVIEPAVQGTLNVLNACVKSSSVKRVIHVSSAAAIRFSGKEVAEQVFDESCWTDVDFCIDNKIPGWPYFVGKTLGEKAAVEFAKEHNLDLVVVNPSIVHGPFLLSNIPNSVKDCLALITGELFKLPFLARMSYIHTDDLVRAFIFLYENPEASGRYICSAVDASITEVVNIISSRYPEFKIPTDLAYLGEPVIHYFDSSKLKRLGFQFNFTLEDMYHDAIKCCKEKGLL

AtDFR = target: T3, AtDFR (Arabidopsis thaliana, UniProt P51102)
T3 construct: gene DFRA; pET28a-AtDFR, E. coli BL21(DE3), crude soluble extract
T3 sequence (P51102 1-382): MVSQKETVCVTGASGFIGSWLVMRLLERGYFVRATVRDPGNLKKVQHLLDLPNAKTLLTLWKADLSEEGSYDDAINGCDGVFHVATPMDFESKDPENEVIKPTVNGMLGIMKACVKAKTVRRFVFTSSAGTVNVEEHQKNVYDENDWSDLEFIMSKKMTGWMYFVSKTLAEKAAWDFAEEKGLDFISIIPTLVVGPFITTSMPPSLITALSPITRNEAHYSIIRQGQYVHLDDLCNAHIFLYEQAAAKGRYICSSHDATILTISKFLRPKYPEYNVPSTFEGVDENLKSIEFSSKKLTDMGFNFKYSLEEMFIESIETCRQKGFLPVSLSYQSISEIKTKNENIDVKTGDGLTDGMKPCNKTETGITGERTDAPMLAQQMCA

O=C1c2c(O)cc(O)cc2O[C@H](c2ccc(O)cc2)[C@H]1O [DHK, dihydrokaempferol]
HPLC of anthocyanidin formed from product, crude E. coli extract (DeDFR2): DeDFR1 and DeDFR2 had the ability to catalyze the DHK and DHQ reaction | HPLC of anthocyanidin formed from product, crude E. coli extract (DeDFR1): DeDFR1 and DeDFR2 had the ability to catalyze the DHK and DHQ reaction

O=C1c2c(O)cc(O)cc2O[C@H](c2cc(O)c(O)c(O)c2)[C@H]1O [DHM, dihydromyricetin]
HPLC of anthocyanidin formed from product, crude E. coli extract (AtDFR): all three dihydroflavonols could be converted to pink anthocyanins

O=C1c2c(O)cc(O)cc2O[C@H](c2ccc(O)c(O)c2)[C@H]1O [DHQ, dihydroquercetin]
HPLC of anthocyanidin formed from product, crude E. coli extract (DeDFR2): DeDFR1 and DeDFR2 had the ability to catalyze the DHK and DHQ reaction | HPLC of anthocyanidin formed from product, crude E. coli extract (DeDFR1): DeDFR1 and DeDFR2 had the ability to catalyze the DHK and DHQ reaction | HPLC of anthocyanidin formed from product, crude E. coli extract (AtDFR): all three dihydroflavonols could be converted to pink anthocyanins
